Measurements published in patent US8609602B2, “Cleaning solution” (priority 2010, dated 2013).
Where two headings read alike, the source gives them in different places.

What was measured:
[1] = type: physicochemical; conditions: for Solubility of added stearic acid in detergent solution (in words): stearic acid 10-20 mg/ml, overnight at 40° C.
Procedure: Detergents classified as ionic and non-ionic were tested, as well as carbohydrate and polyethylene glycol based non-ionic detergents.

[2] = MSDS / known values; cited from earlier work
[3] = 6.7% TRIZMA in 67% aqueous 2-propanol; (10% w/v)
Procedure: Different detergent or detergent/base stock solutions were mixed in culture tubes, vortexed for 1 minute, and allowed to completely dissolve over an additional 30 minutes. The stock solutions were either used undiluted or diluted with additional water or alcohol in predetermined ratios. Diluted solutions were again mixed by vortexing for 1 minute and then allowing the solution to sit for 30 minutes.
A representative aliphatic acid, the fatty acid stearic acid, was added to the tube in a predetermined quantity between 10 mg/ml and 20 mg/ml. […] Solutions were then cooled to room temperature (RT) and after 6 hours, they were evaluated again for evidence of precipitation.
The following experiment is similar to Experiment 1, except that addition of a non-toxic buffer and/or a short-chained alcohol was investigated to attempt to improve upon the above results. Various bases and alcohols were tested. […] A representative non-toxic base, TRIZMA® (SIGMA-ALDRICH®, St. Louis, Mo.), was first tested (also known as TRIS, and Tris(hydroxymethyl)aminomethane). […] For this test, the amount of contaminating aliphatic acid, stearic acid, added to the solution was increased to 100 mg/ml.

## CCCCCCCCCCCC[N+](C)(C)[O-] [C-12 dimethyl amine oxide, n-dodecyl-N,N-dimethylamine-N-oxide]
[1]; aqueous detergent solution
  Parts surfactant needed to dissolve stearic acid: 4 parts surfactant could dissolve 1 part stearic acid
[1]
  Solubility of added stearic acid in detergent solution (in words): Complete solubility at all concentrations of added stearic acid
[1]; listed as n-dodecyl-N,N-dimethylamine-N-oxide
  Solubility of added stearic acid in detergent solution (in words): quantitatively facilitated the solubilization
[2]
  LD50: 5000 mg/kg

## Tris(hydroxymethyl)aminomethane [TRIZMA base]
[3]
  Stearic acid completely solubilized by TRIZMA base without detergent: 100 mg/mL
